Patent publication US5244795A, “Processes for preparing cholesterol lowering compounds” (Merck & Co., Inc., priority 1992, dated 1993)

Assays:
Torulospora hansenii = assay: FISP disc diffusion assay; format: cell-based; parameters: key: F: clear zone, fuzzy edges; S: slightly hazy zone (some growth observed throughout zone); H: hazy zone (considerable growth observed throughout zone); V: very hazy zone (zone of inhibition is barely discernable); R: zone displays a ring of resistant growth; no qualifier: clear zone throughout, sharp edges; settings: 250 μg/ml in CH2Cl2
From the text: (§1) The FISP assay employs disc diffusion susceptibility testing methods to generate a spectrum of activity against a panel of representative yeasts, filamentous fungi and bacteria.
(§2) The yeasts employed in the assay are Saccharomyces cerevisiae, Candida albicans, Candida tropicalis, Candida rugosa, Brettanomyces bruxellensis, Torulospora hansenii, Candida guilliermondi, Candida pseudotropicalis, Torulopsis glabrata, Cryptococcus albidus, Cryptococcus laurentii and Kluyveromyces fragilis.
(§3) For carrying out the assay, seeded assay plates are prepared in the following manner according to the type of assay strain.
(§4) Inocula for yeasts and bacterial strains are prepared from overnight broth cultures then diluted into potato dextrose agar to a final concentration of either 40 percent or 70 percent transmission at 660 nm.
(§5) Assay plates for the yeasts and filamentous fungi are prepared by diluting the inoculum into appropriate molten agar medium, cooled to 45° C. to obtain a final concentration of 4 percent.
(§6) The seeded agar media thus prepared are dispensed into petri dishes for assays (11 ml per dish).
(§7) The samples to be tested for production of antifungal agent are applied to 6.2 mm filter paper discs (25 μl/disc) and air dried at 24° C. When the sample to be tested is crude broth, it may be centrifuged prior to application. The discs bearing the material to be tested are then applied employing sterile conditions to the seeded assay plates. The assay plates are then incubated at either 28° C. or 37° C. for 24 hours. In one of the assays for Bacillus subtilis, the sample is applied to a disc previously impregnated with 4M potassium chloride at 25 μl/disc and then air dried.
(§8) Following incubation, the inhibition zones are measured and recorded. The measurements are made from the extreme edge where growth differs from the background zone. The zones are noted as to appearance as fuzzy edge and clear center, hazy throughout, slightly hazy, very hazy or ringed.
(§9) FISP data is reported as the diameter (in mm.) of the zone of inhibition of growth in agar diffusion assays. The zone is determined by measuring growth that differs from the background lawn. A qualifier is also added to describe the zone quality as listed below: no qualifier: clear zone throughout, sharp edges

Candida tropicalis = assay: FISP disc diffusion assay; format: cell-based; parameters: key: F: clear zone, fuzzy edges; S: slightly hazy zone (some growth observed throughout zone); H: hazy zone (considerable growth observed throughout zone); V: very hazy zone (zone of inhibition is barely discernable); R: zone displays a ring of resistant growth; no qualifier: clear zone throughout, sharp edges; settings: 250 μg/ml in CH2Cl2
From the text: as §1, §2, §3, §4, §5, §6, §7, §8, §9

Candida rugosa = assay: FISP disc diffusion assay; format: cell-based; parameters: key: F: clear zone, fuzzy edges; S: slightly hazy zone (some growth observed throughout zone); H: hazy zone (considerable growth observed throughout zone); V: very hazy zone (zone of inhibition is barely discernable); R: zone displays a ring of resistant growth; no qualifier: clear zone throughout, sharp edges; settings: 250 μg/ml in CH2Cl2
From the text: as §1, §2, §3, §4, §5, §6, §7, §8, §9

Cryptococcus albidus = assay: FISP disc diffusion assay; format: cell-based; parameters: key: F: clear zone, fuzzy edges; S: slightly hazy zone (some growth observed throughout zone); H: hazy zone (considerable growth observed throughout zone); V: very hazy zone (zone of inhibition is barely discernable); R: zone displays a ring of resistant growth; no qualifier: clear zone throughout, sharp edges; settings: 250 μg/ml in CH2Cl2
From the text: as §1, §2, §3, §4, §5, §6, §7, §8, §9

Kluyveromyces fragilis = assay: FISP disc diffusion assay; format: cell-based; parameters: key: F: clear zone, fuzzy edges; S: slightly hazy zone (some growth observed throughout zone); H: hazy zone (considerable growth observed throughout zone); V: very hazy zone (zone of inhibition is barely discernable); R: zone displays a ring of resistant growth; no qualifier: clear zone throughout, sharp edges; settings: 250 μg/ml in CH2Cl2
From the text: as §1, §2, §3, §4, §5, §6, §7, §8, §9

Cryptococcus laurentii = assay: FISP disc diffusion assay; format: cell-based; parameters: key: F: clear zone, fuzzy edges; S: slightly hazy zone (some growth observed throughout zone); H: hazy zone (considerable growth observed throughout zone); V: very hazy zone (zone of inhibition is barely discernable); R: zone displays a ring of resistant growth; no qualifier: clear zone throughout, sharp edges; settings: 250 μg/ml in CH2Cl2
From the text: as §1, §2, §3, §4, §5, §6, §7, §8, §9

Candida pseudotropicalis = assay: FISP disc diffusion assay; format: cell-based; parameters: key: F: clear zone, fuzzy edges; S: slightly hazy zone (some growth observed throughout zone); H: hazy zone (considerable growth observed throughout zone); V: very hazy zone (zone of inhibition is barely discernable); R: zone displays a ring of resistant growth; no qualifier: clear zone throughout, sharp edges; settings: 250 μg/ml in CH2Cl2
From the text: as §1, §2, §3, §4, §5, §6, §7, §8, §9

[1] = test system: Brettanomyces bruxellensis; assay: FISP disc diffusion assay; format: cell-based; parameters: key: F: clear zone, fuzzy edges; S: slightly hazy zone (some growth observed throughout zone); H: hazy zone (considerable growth observed throughout zone); V: very hazy zone (zone of inhibition is barely discernable); R: zone displays a ring of resistant growth; no qualifier: clear zone throughout, sharp edges; settings: 250 μg/ml in CH2Cl2
From the text: as §1, §2, §3, §4, §5, §6, §7, §8, §9

Streptomyces sp. = assay: FISP disc diffusion assay; format: cell-based; parameters: key: F: clear zone, fuzzy edges; S: slightly hazy zone (some growth observed throughout zone); H: hazy zone (considerable growth observed throughout zone); V: very hazy zone (zone of inhibition is barely discernable); R: zone displays a ring of resistant growth; no qualifier: clear zone throughout, sharp edges; settings: 250 μg/ml in CH2Cl2
Description: as §1
(§10) The bacteria employed in the assay are Streptomyces sp., Acholeplasma laidlawii and Bacillus subtilis.
as §3, §4, §6
as §7, with “In one of the assays for Bacillus subtilis, the sample is applied to a disc previously impregnated with 4M potassium chloride at 25 μl/disc and then air dried.” left out
(§11) Following incubation, the inhibition zones are measured and recorded. […]
(§12) FISP data is reported as the diameter (in mm.) of the zone of inhibition of growth in agar diffusion assays. The zone is determined by measuring growth that differs from the background lawn. […]

Candida albicans = assay: FISP disc diffusion assay; format: cell-based; parameters: key to zone quality qualifier: F: clear zone, fuzzy edges; S: slightly hazy zone (some growth observed throughout zone); H: hazy zone (considerable growth observed throughout zone); V: very hazy zone (zone of inhibition is barely discernable); R: zone displays a ring of resistant growth; no qualifier: clear zone throughout, sharp edges; settings: 250 μg/ml in CH2Cl2
From the text: as §1, §2, §3, §4
(§13) For three strains of Candida albicans and one strain of Saccharomyces cerevisiae, sterile saline is employed in place of potato dextrose broth.
as §5, §6, §7, §8, §9

Saccharomyces cerevisiae = assay: FISP disc diffusion assay; format: cell-based; parameters: key to zone quality qualifier: F: clear zone, fuzzy edges; S: slightly hazy zone (some growth observed throughout zone); H: hazy zone (considerable growth observed throughout zone); V: very hazy zone (zone of inhibition is barely discernable); R: zone displays a ring of resistant growth; no qualifier: clear zone throughout, sharp edges; settings: 250 μg/ml in CH2Cl2
From the text: as §1, §2, §3, §4, §13, §5, §6, §7, §8, §9

Bacillus subtilis = assay: FISP disc diffusion assay; format: cell-based; settings: 250 μg/ml in CH2Cl2
Description: as §1, §10, §3, §4
Seeded agar for Bacillus subtilis are prepared from a commercially available spore suspension which is diluted directly into molten agar (45° C.) to obtain a final concentration of 0.1 percent.
as §6
The samples to be tested for production of antifungal agent are applied to 6.2 mm filter paper discs (25 μl/disc) and air dried at 24° C. When the sample to be tested is crude broth, it may be centrifuged prior to application. […]
as §11, §12

Light stability = format: physicochemical

CC(/C=C/C=C(\C)C(O)C(C)C(=O)O[C@H]1C[C@H](C)C=C2C=C[C@@]3(C)O[C@@H](O)CC(=O)[C@]3(C)[C@H]21)=C\C=C\C(=O)O (stereo partly drawn) [Compound A]
zone quality qualifier (Torulospora hansenii): H | zone quality qualifier (Candida tropicalis): S | zone quality qualifier (Candida rugosa): S | zone quality qualifier (Cryptococcus albidus): V | zone quality qualifier (Kluyveromyces fragilis): V | zone quality qualifier (Cryptococcus laurentii): H and V | zone quality qualifier (Candida pseudotropicalis): V | zone quality qualifier [1]: S | zone quality qualifier (Streptomyces sp.): V | zone quality qualifier (Candida albicans): S | zone quality qualifier (Candida albicans; YNB): V | zone quality qualifier (Candida albicans; YNB/GLU): H | zone quality qualifier (Candida albicans; YNB/NAG): H | zone of inhibition at 250 µg/mL (Candida albicans; Candida albicans, read-out: diameter of the zone of inhibition of growth): 0 mm | zone quality qualifier (Saccharomyces cerevisiae): H | zone quality qualifier (Saccharomyces cerevisiae; YNB): H | zone of inhibition at 250 µg/mL (Saccharomyces cerevisiae; Saccharomyces cerevisiae, read-out: diameter of the zone of inhibition of growth): 0 mm | diameter of the zone of inhibition of growth (Bacillus subtilis; KCl (disc impregnated with 4M potassium chloride)): 0 mm | zone of inhibition at 250 µg/mL (Bacillus subtilis; Bacillus subtilis, read-out: diameter of the zone of inhibition of growth): 0 mm | stability (Light stability; isolated and worked with in the absence of light): stable when isolated and worked with in the absence of light | light sensitivity (Light stability; light): light sensitive
